Results reported in US11739068B2, “Polymorphs of N-[(3-fluoro-4-methoxypyridin-2-yl)methyl]-3-(methoxymethyl)-1-({4-[(2-oxopyridin-1-yl)methyl]phenyl}methyl)pyrazole-4-carboxamide and salts thereof” (KALVISTA PHARMACEUTICALS LIMITED, priority 2016, dated 2023).

Experiments:
Type in all cases: physicochemical
[1] = Visual aqueous solubility
Method: Form 1 (10 mg) was weighed into a glass vial and water was added in 100 μL portions up to 3 mL then 1 mL portions thereafter. Solubility was assessed visually following a brief period of equilibration.
Form 18 (10 mg) was weighed into a glass vial and water was added in 100 μL portions up to 3 mL then 1 mL portions thereafter. Solubility was assessed visually following a brief period of equilibration.
Form 8 (10 mg) was weighed into a glass vial and water was added in 100 μL portions up to 3 mL then 1 mL portions thereafter. Solubility was assessed visually following a brief period of equilibration.
Form 15 (10 mg) was weighed into a glass vial and water was added in 100 μL portions up to 3 mL then 1 mL portions thereafter. Solubility was assessed visually following a brief period of equilibration.
Form 16 (10 mg) was weighed into a glass vial and water was added in 100 μL portions up to 3 mL then 1 mL portions thereafter. Solubility was assessed visually following a brief period of equilibration.

Slurry studies = conditions: 72 hrs; for XRPD of solid after slurry versus starting form: 90/10 IPA/water, ambient temperature
Method: Form 1 (20 mg) was suspended in 90/10 IPA/water (200 μL or […]) and shaken at ambient temperature for 72 hrs. The supernatant was evaporated rather than filtered due to the small volume and the resulting solid was examined by XRPD (FIG. 6).
The supernatant was evaporated rather than filtered due to the small volume and the resulting solid was examined by XRPD (FIG. 28).
The supernatant was evaporated rather than filtered due to the small volume and the resulting solid was examined by XRPD (FIG. 34).
The supernatant was evaporated rather than filtered due to the small volume and the resulting solid was examined by XRPD (FIG. 40).

[2] = Gravimetric Vapour Sorption (GVS)
Method: Gravimetric Vapour Sorption (GVS) data were collected using the following method: Approximately 10 mg of sample was placed into a wire-mesh vapour sorption balance pan and loaded into an ‘IgaSorp’ vapour sorption balance (Hiden Analytical Instruments). The sample was then dried by maintaining a 0% humidity environment until no further weight change was recorded. Subsequently, the sample was then subjected to a ramping profile from 0-90% RH at 10% RH increments, maintaining the sample at each step until equilibration had been attained (99% step completion). Upon reaching equilibration, the % RH within the apparatus was ramped to the next step and the equilibration procedure repeated. After completion of the sorption cycle, the sample was then dried using the same procedure. The weight change during the sorption/desorption cycles were then monitored, allowing for the hygroscopic nature of the sample to be determined.

Molecule | XRPD of solid after slurry versus starting form (Slurry studies) | %-Wt (dry basis) ([2]; adsorption, about 0 %-RH) | %-Wt (dry basis) ([2]; adsorption, about 10 %-RH) | %-Wt (dry basis) ([2]; adsorption, about 20 %-RH) | %-Wt (dry basis) ([2]; adsorption, about 30 %-RH) | %-Wt (dry basis) ([2]; adsorption, about 40 %-RH) | %-Wt (dry basis) ([2]; adsorption, about 50 %-RH) | %-Wt (dry basis) ([2]; adsorption, about 60 %-RH) | %-Wt (dry basis) ([2]; adsorption, about 70 %-RH) | %-Wt (dry basis) ([2]; adsorption, about 80 %-RH) | %-Wt (dry basis) ([2]; adsorption, about 90 %-RH) | %-Wt (dry basis) ([2]; desorption, about 0 %-RH) | %-Wt (dry basis) ([2]; desorption, about 5 %-RH) | %-Wt (dry basis) ([2]; desorption, about 15 %-RH) | %-Wt (dry basis) ([2]; desorption, about 25 %-RH) | %-Wt (dry basis) ([2]; desorption, about 35 %-RH) | %-Wt (dry basis) ([2]; desorption, about 45 %-RH) | %-Wt (dry basis) ([2]; desorption, about 55 %-RH) | %-Wt (dry basis) ([2]; desorption, about 65 %-RH) | %-Wt (dry basis) ([2]; desorption, about 75 %-RH) | other results
COCc1nn(Cc2ccc(Cn3ccccc3=O)cc2)cc1C(=O)NCc1nccc(OC)c1F.O=S(=O)(O)O [Form 8, N-[(3-fluoro-4-methoxypyridin-2-yl)methyl]-3-(methoxymethyl)-1-({4-[(2-oxopyridin-1-yl)methyl]phenyl}methyl)pyrazole-4-carboxamide sulfate] | no change in the X-ray pattern | 0.03946% | 0.4404% | 0.6163% | 0.7771% | 0.6383% | 0.8735% | 1.214% | 2.0577% | 3.99% | 14.16% | 0.000552% | 0.07837% | 0.2289% | 0.3947% | 0.2459% | 0.5639% | 0.9496% | 1.643% | 3.436% | Aqueous solubility (in words) [1]: excellent aqueous solubility; solubility ([1]; water, thermodynamic from solid): ~100 mg/mL; %-Wt (dry basis) ([2]; desorption, about 85 %-RH): 6.295%; Increase in water content by GVS (hygroscopicity, in words) ([2]; up to 70% relative humidity): only a relatively gradual increase in water content
COCc1nn(Cc2ccc(Cn3ccccc3=O)cc2)cc1C(=O)NCc1nccc(OC)c1F.Cl [Form 18, N-[(3-fluoro-4-methoxypyridin-2-yl)methyl]-3-(methoxymethyl)-1-({4-[(2-oxopyridin-1-yl)methyl]phenyl}methyl)pyrazole-4-carboxamide hydrochloride] | different to that of Form 18 | 0.000338% | 0.2364% | 0.3723% | 0.5037% | 0.6618% | 0.9246% | 9.109% | 9.603% | 13.9262% | 66.83% | 0.35% | 2.227% | 3.448% | 4.993% | 7.125% | 9.624% | 12.7659% | 17.34% | 24.5% | %-Wt (dry basis) ([2]; desorption, about 85 %-RH): 40.16%
N-[(3-fluoro-4-methoxypyridin-2-yl)methyl]-3-(methoxymethyl)-1-({4-[(2-oxopyridin-1-yl)methyl]phenyl}methyl)pyrazole-4-carboxamide edisylate [Form 15] | no differences in X-ray pattern |  |  |  |  |  |  |  |  |  |  |  |  |  |  |  |  |  |  |  | Aqueous solubility ([1]; water, assessed visually): ~100 mg/mL; Aqueous solubility, repeat using less water ([1]; water, dissolved in 0.05 mL): > 200 mg/mL; Result of water slurry (Slurry studies; 20 mg in deionised water (200 μL)): complete dissolution of the sample
N-[(3-fluoro-4-methoxypyridin-2-yl)methyl]-3-(methoxymethyl)-1-({4-[(2-oxopyridin-1-yl)methyl]phenyl}methyl)pyrazole-4-carboxamide edisylate [Form 16] |  | 1.612% | 2.367% | 2.626% | 2.834% | 3.045% | 3.351% | 7.516% | 9.935% | 15.98% | 94.26% | 0.00047% | 2.866% | 4.495% | 6.541% | 9.564% | 12.94% | 17.21% | 23.22% | 33.16% | %-Wt (dry basis) ([2]; desorption, about 85 %-RH): 57.4%
